Data from the NIST ThermoML archive (doi:10.1016/j.jct.2004.09.002).
± gives the expanded uncertainty stated by the source.

Assays:
[1] = refractive index (Na D-line) (dimensionless); details: 293.15 K; 101.33 kPa; Liquid; Standard Abbe refractometry
[2] = 293.15 K; 101.33 kPa; Liquid; Vibrating tube method
[3] = Boiling temperature at pressure P; details: 101.33 kPa; Liquid; Fischer boiling point apparatus

refractive index [1] | mass density [2] | Boiling temperature at pressure P [3] | Structure (SMILES)
1.4434 ± 0.0013 | 970.3 ± 1 kg/m3 | 177.30 ± 0.2 °C | CC(=O)OC1CCCCC1 [cyclohexyl ethanoate]
1.3982 ± 0.0012 | 957.6 ± 0.5 kg/m3 |  | CCCC(=O)O [butanoic acid]
1.3324 ± 0.0012 |  | 100.1 ± 0.2 °C | O [water]
